Reference: patent US7511123B2, “Immuno-interactive fragments of the alpha-C subunit of inhibin” (Prince Henry's Institute of Medical Research, priority 1999, dated 2009)

Legend:
As #1989 = assay: RIA (Assay 2): competition with iodinated inhibin for As #1989; type: binding, rabbit; settings: biotinylated peptides; 50% fall in binding of iodinated inhibin
Description: (§1) This assay was used to determine which peptides compete with iodinated 30 kDa inhibin for As #41, #128 and #1989 (used in the original inhibin RIA, Lapphorn et al., 1989, supra) in a RIA format. This assay identifies those peptides that bind to inhibin-binding antibodies in the antiserum and provides a stricter affinity and specificity assessment in identifying the appropriate epitopes than that found with Assay 1. The competition between peptide and hr-inhibin (used as the standard) was assessed from their ED50 values. The RIA consisted of the competition of iodinated inhibin and either hr-inhibin reference preparation, individual peptides or pools from the 4 peptide regions, with As #41, #128 and in some instances, As #1989. The peptides/inhibin/iodinated inhibin and antisera (at a prescribed dilution) were incubated overnight at 4° C. using standard methodologies. The antibody-bound iodinated inhibin was immunoprecipitated with the addition of an anti-sheep IgG serum raised in goats and the radioactivity was measured in a gamma counter. The concentration of peptide that gives a 50% fall in binding of iodinated inhibin (ED50) was determined and this value was used to give a measure of the affinity of the peptide for the antiserum. This methodology consisted of determining the ED50 of the peptide in the RIA using iodinated human recombinant inhibin as tracer with either As #41, As #128 or As #1989 and graded doses of either hr-inhibin or peptide as described in Example 2.

As #41 [1] = assay: Solid phase assay (Assay 1): biotinylated peptides binding to As #41; set-up: species or system sheep; key: +++++ major contribution; + minor contribution; settings: relative contribution
Method: (§2) This assay is a broad screen of the binding of the 31 biotinylated peptides to As #41 and #128 as recommended by Chiron Mimotopes.
(§3) The biotinylated peptides were initially bound to streptavidin-coated 96-well plates (2 hours at room temperature), antiserum #41 or #128 was then added (2 hours room temperature) to bind to the peptides. Detection of antiserum binding was assessed by a further incubation with an anti-ovine IgG serum labeled with the enzyme, horseradish peroxidase. The enzyme activity was assessed by conversion of a colorless substrate to a colored product that is detected in a spectrophotometer. The enzyme activity measured was proportional to the extent of the binding of the peptides.

As #128 [2] = assay: RIA (Assay 2): competition with iodinated inhibin for As #128; type: binding, sheep; settings: biotinylated peptides; 50% fall in binding of iodinated inhibin
Description: as §1

As #41 [3] = assay: RIA (Assay 2): competition with iodinated inhibin for As #41; type: binding, sheep; settings: biotinylated peptides; 50% fall in binding of iodinated inhibin
Description: as §1

As #41 [4] = assay: Competitive 2-site assay (Assay 3), approach (b); type: binding, sheep; set-up: key to #41 2-site competitive assay Assay 3: +++++ major contribution; + minor contribution; settings: relative contribution
Description: (§4) This assay was developed to establish the relative importance of the individual peptides and peptide pools (identified as epitopes in Assays 1 and 2) in the sandwich antibody format used in the IFMA with As #128 as capture antibody and As #41 as detection antibody. Two approaches (a and b) were considered, Approach (a) explores the cross-reaction of peptides with inhibin for the immobilized As #128 while Approach (b) assesses their cross-reaction with inhibin for As #41.
Approach (b). In this approach, the competition of peptides with the As #41 antiserum using the sandwich antibody format was assessed. Hr-Inhibin was initially incubated with the As #128 coated wells for 1 hour at room temperature. The biotinylated peptide pools and/or individual peptides were incubated together with iodinated As #41 for 1 hour and then added to the inhibin bound As #128 coated plates and incubated for 2 hours at room temperature. Plates were then washed to remove any unbound material and the resulting activity was measured in the gamma counter.

PO-14 [5] = assay: RIA of Set 2 peptides with PO-14; type: binding, mouse; set-up: key: ΦΦΦ strong effect; +, Φ weak effect; a) limited binding; settings: Set 2 biotinylated peptides 0.8 and 0.08 micromoles/L
Method: (§5) The binding of the 41 biotinylated peptides as set forth in Table 7 (peptide set 2) to the mouse monoclonal antibodies (PO# series) was assessed as follows: b) Assay 2 (radioimrnunoassay, RIA) using iodinated human inhibin A as tracer. Mabs (at an appropriate dilution, see above) were incubated with iodinated human recombinant inhibin in the presence of biotinylated peptides (0.8 and 0.08 micromoles/L final concentration) overnight at room temperature.

PO-12 [6] = assay: RIA of Set 2 peptides with PO-12; type: binding, mouse; set-up: key: ΦΦΦ strong effect; +, Φ weak effect; a) limited binding; settings: Set 2 biotinylated peptides 0.8 and 0.08 micromoles/L
Method: as §5

PO-14 [7] = assay: Solid phase binding of Set 2 peptides to PO-14; set-up: species or system mouse; key: +++; ΦΦΦ strong effect; +, Φ weak effect; settings: Set 2 biotinylated peptides 24 micromoles/L
Method: (§6) The binding of the 41 biotinylated peptides as set forth in Table 7 (peptide set 2) to the mouse monoclonal antibodies (PO# series) was assessed as follows:
(§7) a) Assay 1 (solid phase assay). The assay was undertaken as outlined in assay 1 of Example 2. Biotinylated peptides (24 micromoles/L) were initially bound to streptavidin-coated plates. Mab (at an appropriate dilution to give a detectable response, 1:1000, 1:10000 dilution of the culture medium) was then added and incubated for 1.5 hr. The amount of bound Mab was determined using horseradish peroxidase-bound anti-mouse IgG serum and enzyme activity detected at 450-630 nm using an ELISA plate reader.

PO-12 [8] = assay: Solid phase binding of Set 2 peptides to PO-12; set-up: species or system mouse; key: +++; ΦΦΦ strong effect; +, Φ weak effect; settings: Set 2 biotinylated peptides 24 micromoles/L
Method: as §6, §7

PO-22 [9] = assay: Solid phase binding of Set 2 peptides to PO-22; set-up: species or system mouse; key: +++; ΦΦΦ strong effect; +, Φ weak effect; settings: Set 2 biotinylated peptides 24 micromoles/L
Method: as §6, §7

R1 = assay: Solid phase binding of Set 2 peptides to R1; set-up: species or system mouse; key: +++; ΦΦΦ strong effect; +, Φ weak effect; settings: Set 2 biotinylated peptides 24 micromoles/L
Method: as §6, §7

As #128 [10] = assay: Competitive 2-site assay (Assay 3), approach (a); type: binding, sheep; set-up: key: +++++ major contribution; + minor contribution; settings: relative contribution
Description: as §4
Approach (a). The biotinylated peptide pools and/or individual peptides at various concentrations, in combination with a fixed concentration of hr-inhibin, were incubated for 2 hours with As #128-coated plates. The plates were then washed to remove any unbound material. Iodinated As #41 was then added to bind to the bound hr-inhibin, the plates washed and the bound radioactivity was measured in a gamma counter. The counts measured were proportional to the amount of hr-inhibin bound to both antisera. The possibility that a peptide contained two epitopes capable of linking As #128 and #41 was assessed in the absence of added hr-inhibin.

PO-22 [11] = assay: RIA of Set 2 peptides with PO-22; type: binding, mouse; set-up: key: ΦΦΦ strong effect; +, Φ weak effect; a) limited binding; settings: Set 2 biotinylated peptides 0.8 and 0.08 micromoles/L
Method: as §5

PO-6 = assay: Solid phase binding of Set 2 peptides to PO-6; set-up: species or system mouse; key: +++; ΦΦΦ strong effect; +, Φ weak effect; settings: Set 2 biotinylated peptides 24 micromoles/L
Method: as §6, §7

As #128 [12] = assay: Solid phase assay (Assay 1): biotinylated peptides binding to As #128; set-up: species or system sheep; key: +++++ major contribution; + minor contribution; settings: relative contribution
Method: as §2, §3

| Substance | As#1989 ED50 (As #1989) [nM] | #41 Antibody screen Assay 1 (As #41 [1]) | As#128 ED50 (As #128 [2]) [nM] | As#41 ED50 (As #41 [3]) [nM] | #41 2-site competitive assay Assay 3 (As #41 [4]) | PO-14 RIA (PO-14 [5]) | PO-12 RIA (PO-12 [6]) | PO-14 SPB (PO-14 [7]) | PO-12 SPB (PO-12 [8]) | PO-22 SPB (PO-22 [9]) | R1 SPB (R1) | #128 2-site competitive assay Assay 3 (As #128 [10]) | PO-22 RIA (PO-22 [11]) | PO-6 SPB (PO-6) | #128 Antibody screen Assay 1 (As #128 [12]) |
| --- | --- | --- | --- | --- | --- | --- | --- | --- | --- | --- | --- | --- | --- | --- | --- |
| SGSG DGGYSFKYETVPNL [Peptide 31] | >2500 | + | 1400 | 2400 | – | – | – | – | – | – | – | – | – | – | – |
| SGSG ETVPNLLTQHCACI [Peptide 33] | >2500 | – | 2500 | 4000 | + | – | – | – | – | – | – | – | – | – | – |
| SGSG GTMRPLHVRTTSDG [Peptide 28] | >2500 | + | 625 | 4000 | – | – | – | – | – | – | – | – | – | – | – |
| SGSG LPGAQPCCAALPGT [Peptide 25] | >2500 | – | 2000 | 5000 | – | ΦΦΦ | ΦΦΦ | +++ | +++ | – | – | – | – | – | – |
| SGSG MSWPWSPSALRLLQ [Peptide 4] | >2500 | – | 3800 | 1300 | – | – | – | – | – | +++ | + | + | ΦΦΦ | +++ | + |
